Laboratory results from patent US20120165319A1, “INHIBITORS OF INTERLEUKIN-1 BETA CONVERTING ENZYME” (VERTEX PHARMACEUTICALS INCORPORATED, priority 1995, published 2012).
Read-outs that look alike come from different tables or passages of the source.

Assays:
[1] = system: IL-1β, human peripheral blood mononuclear cells (PBMC); experiment: PBMC cell assay: IL-1β assay with human PBMC or enriched adherent mononuclear cells, LPS-stimulated; type: cell-based
Method in brief: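 Mature IL-1β is measured by ELISA in supernatants after 16–18 hr at 37 °C, 5% CO2, with LPS (5 ng/ml final) and test compound (0.1% DMSO final). Cells are human PBMC (6×10^6 cells/ml) or plate-adherent mononuclear cells (2.5−3.0×10^5 per well), and the 5–6 compound concentrations span the ICE Ki.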

[2] = system: IL-1β, human whole blood; experiment: Whole blood assay for IL-1β production; type: cell-based
Method in brief: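 IL-1β was quantified by ELISA in plasma diluted 1:200. The plasma came from EDTA-anticoagulated human whole blood incubated at 30 °C for 16-18 h with LPS (final 5.0 ng/ml) plus a saline serial dilution of compound. Controls were no-LPS, no-inhibitor and highest-vehicle.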

[3] = Homo sapiens, PBMC, * = values obtained upon reassay
[4] = Homo sapiens, * = values obtained upon reassay, read-out: Whole human blood IC50

Compound	IC50 [1, 3] [µM]	IC50 [2, 4] [µM]	further results
O=C1C[C@H](NC(=O)[C@@H]2CCCN3C(=O)CC[C@H](NC(=O)C(=O)c4ccccc4)C(=O)N23)C(OCc2ccccc2)O1 (stereo partly drawn) [Compound 2001, [1S,9S(2RS,3S)]9-Benzoylformylamino-6,10-dioxo-1,2,3,4,7,8,9,10-octahydro-N-(2(R,S)-benzyloxy-5-oxotetrahydrofuran-3-yl)-6H-pyridazino[1,2-a][1,2]-diazepine-1-carboxamide]	1.8	3.5	–
CC(C)OC1OC(=O)C[C@@H]1NC(=O)[C@@H]1CCCN2C(=O)CC[C@H](NC(=O)c3ccccc3)C(=O)N12 (stereo partly drawn) [Compound 2100a, [1S,9S(2RS,3S)]9-Benzoylamino-6,10-dioxo-1,2,3,4,7,8,9,10-octahydro-N-(2-isopropoxy-5-oxo-tetrahydro-furan-3-yl)-6H-pyridazino-[1,2-a][1,2]diazepine-1-carboxamide]	1.1	0.85	–
CCOC(=O)C[C@H](NC(=O)[C@@H]1CCCN2C(=O)CC[C@H](NC(=O)c3ccccc3)C(=O)N12)C(OCC)OCC [Compound 2100b]	> 20	> 20	–
COC(=O)C[C@H](NC(=O)[C@@H]1CCCN2C(=O)CC[C@H](NC(=O)c3ccccc3)C(=O)N12)C(OC)OC [Compound 2100c]	> 20	> 20	–
CC(C)OC(=O)C[C@H](NC(=O)[C@@H]1CCCN2C(=O)CC[C@H](NC(=O)c3ccccc3)C(=O)N12)C(OC(C)C)OC(C)C [Compound 2100d]	> 20	> 20	–
CCOC1OC(=O)C[C@@H]1NC(=O)[C@@H]1CCCN2C(=O)CC[C@H](NC(=O)c3ccccc3)C(=O)N12 (stereo partly drawn) [Compound 2100e, [1S,9S(2RS,3S)]9-Benzoylamino-6,10-dioxo-1,2,3,4,7,8,9,10-octahydro-N-(2-ethoxy-5-oxo-tetrahydro-furan-3-yl)-6H-pyridazino[1,2-a][1,2]-diazepine-1-carboxamide]	0.8	0.6	–
O=C1C[C@H](NC(=O)[C@@H]2CCCN3C(=O)CC[C@H](NC(=O)c4ccccc4)C(=O)N23)[C@H](OCc2ccccc2)O1 [Compound 2100o, [1S,9S(2R,3S)]9-Benzoylamino-N-(2-benzyloxy-5-oxotetrahydrofuran-3-yl)-6,10-dioxo-1,2,3,4,7,8,9,10-octahydro-6H-pyridazino[1,2-a][1,2]diazepine-1-carboxamide]	–	–	IC50 ([1]; Homo sapiens, PBMC, Table 17): 1.15 µM; IC50 ([2]; Homo sapiens, Table 17, read-out: Whole human blood IC50): 1.5 µM
COCC(=O)N1C[C@H](NC(=O)c2cccc3ccccc23)C(=O)N(CC(=O)N[C@H](C=O)CC(=O)O)c2ccccc21 [Compound 2201, (3S)-3-[(3S)-2-oxo-3-(1-naphthoyl)amino-5-methoxyacetyl-2,3,4,5-tetrahydro-1H-1,5-benzodiazepine-1-acetylamino]4-oxo-butyric acid]	2	3.5	IC50 ([1]; * = values obtained upon reassay): 3.7 µM
[3S(1S,9S)]3-[(6,10-Dioxo-9-(methanesulphonylamino)-1,2,3,4,7,8,9,10-octahydro-6H-pyridazino[1,2-a][1,2]diazepine-1-carboxamido]-5-(5-methyl-3-phenylisoxazoyloxy)-4-oxopentanoic acid [505 b]	–	–	IC50 ([1]; Table 18): 1.5 µM; IC50 ([2]; Table 18, read-out: Whole human blood IC5O): 2.1 µM
